# In the supplement of paper PMC5579334:
# ± gives the standard deviation of the averaged measurements.
# Legend:
# [1] = test system: HSC1 (primary human Schwann cells); experiment: drug sensitivity score (DSS, CellTox-Green cytotoxicity, 72 h) (DSS (dimensionless)); higher = more cytotoxic; extreme values may be limits of the assay
# Summary of the method: (§1)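 MPNST cell lines and primary human Schwann cells were grown for 72 h at 37 °C in 384-well plates containing five 10-fold compound dilutions. CellTox-Green, added before seeding at a final 1:1000 dilution, gave fluorescence from DNA released by disrupted cells, and signals were scaled to vehicle and positive-control wells. Curves were fitted with a four-parameter logistic model. Drug sensitivity score and relative IC50 come from these fits, with IC50 censored at the top concentration.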
# [2] = test system: HSC2 (primary human Schwann cells); experiment: as above
# Summary of the method: as §1
# HS-PSS [3] = experiment: as above
# Summary of the method: as §1
# S1507-2 [4] = experiment: as above
# Summary of the method: as §1
# ST8814 [5] = experiment: as above
# Summary of the method: as §1
# STS26T [6] = experiment: as above
# Summary of the method: as §1
# [7] = test system: HSC1 (primary human Schwann cells); experiment: % inhibition of CellTiter-Glo viability at highest tested concentration (72 h), relative to DMSO and benzethonium chloride controls; higher = more inhibition
# Summary of the method: (§2)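 For this screen, 384-well plates were preprinted with each compound at five concentrations in 10-fold steps and seeded with MPNST cell lines or primary human Schwann cells at 750–1000 cells per well. Incubation lasted 72 h at 37 °C, 5% CO2, and CellTiter-Glo ATP luminescence, scaled between vehicle and positive-control wells and averaged over duplicates where available, served as viability. Logistic fits with four parameters were applied. Relative IC50 (censored at the top concentration) and drug sensitivity score derive from these fits, and percent inhibition is at the top concentration.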
# [8] = test system: HSC2 (primary human Schwann cells); experiment: as above
# Summary of the method: as §2
# HS-PSS [9] = experiment: as above
# Summary of the method: as §2
# HS-Sch-2 [10] = experiment: as above
# Summary of the method: as §2
# S1507-2 [11] = experiment: as above
# Summary of the method: as §2
# S462 [12] = experiment: as above
# Summary of the method: as §2
# ST8814 [13] = experiment: as above
# Summary of the method: as §2
# STS26T [14] = experiment: as above
# Summary of the method: as §2
# YST-1 [15] = experiment: as above
# Summary of the method: as §2
# [16] = test system: HSC1 (primary human Schwann cells); experiment: drug sensitivity score (DSS, CellTiter-Glo viability, 72 h) (DSS (dimensionless)); higher = more sensitive; extreme values may be limits of the assay
# Summary of the method: as §2
# [17] = test system: HSC2 (primary human Schwann cells); experiment: as above
# Summary of the method: as §2
# HS-PSS [18] = experiment: as above
# Summary of the method: as §2
# HS-Sch-2 [19] = experiment: as above
# Summary of the method: as §2
# S1507-2 [20] = experiment: as above
# Summary of the method: as §2
# S462 [21] = experiment: as above
# Summary of the method: as §2
# ST8814 [22] = experiment: as above
# Summary of the method: as §2
# STS26T [23] = experiment: as above
# Summary of the method: as §2
# YST-1 [24] = experiment: as above
# Summary of the method: as §2
SMILES,drug sensitivity score [1],drug sensitivity score [2],drug sensitivity score (HS-PSS [3]),drug sensitivity score (S1507-2 [4]),drug sensitivity score (ST8814 [5]),drug sensitivity score (STS26T [6]),% inhibition [7],% inhibition [8],% inhibition (HS-PSS [9]),% inhibition (HS-Sch-2 [10]),% inhibition (S1507-2 [11]),% inhibition (S462 [12]),% inhibition (ST8814 [13]),% inhibition (STS26T [14]),% inhibition (YST-1 [15]),drug sensitivity score [16],drug sensitivity score [17],drug sensitivity score (HS-PSS [18]),drug sensitivity score (HS-Sch-2 [19]),drug sensitivity score (S1507-2 [20]),drug sensitivity score (S462 [21]),drug sensitivity score (ST8814 [22]),drug sensitivity score (STS26T [23]),drug sensitivity score (YST-1 [24])
O=C(c1ccc(C(=O)N2CCC(N3CCCC3)CC2)c(Nc2ccccc2)c1)N1CCC(N2CCCC2)CC1 [UNC1215] (max concentration tested 30000 nM),0,0,0,0,0,0,8.9%,5.83%,20.4%,15.2%,5.34 ± 1.7%,2.34 ± 0.36%,13.9%,3.37%,-5.53%,0,0,0.73,0.38,0,0,0.198,0,0
Cn1cc(C2=C(c3cn(C4CCN(Cc5ccccn5)CC4)c4ccccc34)C(=O)NC2=O)c2ccccc21 [Enzastaurin] (max concentration tested 10000 nM),0,0,0,0,0,0.0176,21.8%,25.1%,11.3%,12.3%,26.9 ± 3.6%,10.8 ± 2.6%,12.8%,19.9%,-1.13%,1.32,1.06,3.43,0.28,3.15 ± 2.5,0.0347 ± 0.049,0.0668,1.09,0
CO[C@H]1[C@@H](N(C)C(=O)c2ccccc2)C[C@@H]2O[C@@]1(C)n1c3ccccc3c3c4c(c5c6ccccc6n2c5c31)C(=O)NC4 [Midostaurin] (max concentration tested 10000 nM),11.9,19.4,0,6.96 ± 1.9,11.1,13.4,93.2%,95.5%,56.4%,73.6%,90.3 ± 1%,71.9 ± 4.6%,85.2%,71.8%,52.8%,21.6,20.7,9.08,12.2,16.5 ± 1.1,10.7 ± 0.49,13.9,11.5,11.4
Cc1nc(Nc2ncc(C(=O)Nc3c(C)cccc3Cl)s2)cc(N2CCN(CCO)CC2)n1 [Dasatinib] (max concentration tested 1000 nM),0,0,0,1.53 ± 1.1,4.56,3.95,60%,49.2%,19.3%,58.5%,82.6 ± 2.6%,30.9 ± 1.7%,65.5%,64.8%,20.6%,8.49,5.78,0.97,7.09,12.3 ± 1.8,4.46 ± 0.87,10.2,11.7,4.94
CCn1c(C(=O)N(C2CC2)C2CC2)cc2c3c(ncn3C)c(Nc3cc(C)n(C)n3)nc21 (max concentration tested 10000 nM),0,0,0,0,0,0,9.48%,-0.298%,8.84%,16%,3.94 ± 19%,0.708 ± 7.6%,7.29%,2.67%,29.6%,0,0,0,0.17,0.094 ± 0.13,0,0,0,2.34
CC(C)(C)c1nc(-c2cccc(NS(=O)(=O)c3c(F)cccc3F)c2F)c(-c2ccnc(N)n2)s1 [Dabrafenib] (max concentration tested 2500 nM),0.888,0.888,0.89,0,0,0,39.9%,31.7%,26.6%,24.5%,17.6 ± 9.1%,35.5 ± 1.5%,33%,31.1%,17.6%,4.42,5.89,0.78,0.66,0.291 ± 0.41,1.99 ± 0.58,1.19,3.99,0.2
